Experiments:
[1] = tested on: Carrageenin edema in rat's paw; experiment: Carrageenin Edema Test in Rat's Paw (anti-inflammatory activity, Table 1); assay type: in vivo; details: 100 mg/kg oral, hydrochloride, rat
Description: An anti-inflammatory activity was measured by orally administering 100 mg/kg of a hydrochloride of the indazole derivative of this invention as set forth in Table 1 to an animal in accordance with the standard method of Carrageenin Edema Test in Rat's Paw described in C. A. Winter et al., Proc. Soc. Exp. Biol. Med., 111, 544 (1962).

in vivo = details: mouse, ip, intraperitoneal, hydrochloride, male ddy mice

Row | Compound | inhibition in vivo at 100 mg/kg [1] [%] | LD50 (in vivo) [mg/kg]
1 | Nc1nn(CCCN2CCCC2)c2ccc(Cl)cc12 [(21), 1-(3-Pyrrolidinopropyl)-3-amino-5-chloroindazole] | 39 | 311
2 | OC1CCN(CCCNc2nn(CCCN3CCOCC3)c3ccc(Cl)cc23)CC1 [(118), 1-(3-Morpholinopropyl)-3-[3-(4-hydroxypiperidino)propylamino]-5-chloroindazole] | 31 | 287
3 | CCN(CC)CCCNc1nn(CCCN2CCOCC2)c2ccc(Cl)cc12 [(115), 1-(3-Morpholinopropyl)-3-(3-diethylaminopropylamino)-5-chloroindazole] | 31 | 301
4 | Nc1nn(CCCCCCN2CCCCC2)c2ccc(O)cc12 [(34), 1-(6-Piperidinohexyl)-3-amino-5-hydroxyindazole] | 26 | 231
5 | CC(CCn1nc(N)c2ccccc21)N1CCOCC1 (stereo not drawn) [(150), 1-(3-Morpholinobutyl)-3-aminoindazole] | 39 | 270
6 | CC(C)CC(CCNc1nn(CCC(C)N2CCCCC2)c2ccc(Cl)cc12)N1CCCCC1 (stereo not drawn) [(106), 1-(3-Piperidinobutyl)-3-(3-piperidino-5-methylhexylamino)-5-chloroindazole] | 22 | 228
7 | CCN(CC)CCCNc1n[nH]c2ccc(C)cc12 [(51), 3-(3-Diethylaminopropylamino)-5-methylindazole] | 60 | 231
8 | CCN(CC)CCCn1nc(N)c2cc(O)ccc21 [(24), 1-(3-Diethylaminopropyl)-3-amino-5-hydroxyindazole] | 53 | 161
9 | CC(CCNc1nn(CCCN2CCCCC2)c2ccc(Cl)cc12)N1CCCCC1 (stereo not drawn) [(103), 1-(3-Piperidinopropyl)-3-(3-piperidinobutylamino)-5-chloroindazole] | 29 | 261
10 | CC1CCCC(C)N1CCCNc1nn(CCCN2CCOCC2)c2ccccc12 (stereo not drawn) [(156), 1-(3-Morpholinopropyl)-3-[3-(2,6-dimethylpiperidino)propylamino]indazole] | 32 | 301
11 | CC(C)CC(CCNc1n[nH]c2ccc(O)cc12)N1CCCCC1 (stereo not drawn) [(80), 3-(3-Piperidino-5-methylhexylamino)-5-hydroxyindazole] | 32 | 332
12 | CCN(CC)CCCn1nc(N)c2cc(OC)ccc21 [(6), 1-(3-Diethylaminopropyl)-3-amino-5-methoxyindazole] | 56 | 188
13 | CC(CCn1nc(N)c2cc(O)ccc21)N(C)C (stereo not drawn) [(31), 1-(3-Dimethylaminobutyl)-3-amino-5-hydroxyindazole] | 35 | 241
14 | Clc1ccc2[nH]nc(NCCCN3CCOCC3)c2c1 [(66), 3-(3-Morpholinopropylamino)-5-chloroindazole] | 46 | 246
15 | CC1CCCCN1CCCNc1nn(CCCN2CCCC2)c2ccc(Cl)cc12 (stereo not drawn) [(113), 1-(3-Pyrrolidinopropyl)-3-[3-(2-methylpiperidino)propylamino]-5-chloroindazole] | 31 | 221
16 | CC(CCn1nc(NCCC(C)N2CCCCC2)c2cc(Cl)ccc21)N(C)C (stereo not drawn) [(110), 1-(3-Dimethylaminobutyl)-3-(3-piperidinobutylamino)-5-chloroindazole] | 28 | 293
17 | CCN(CC)CCCn1nc(N)c2cccc(O)c21 [(26), 1-(3-Diethylaminopropyl)-3-amino-7-hydroxyindazole] | 57 | 297
18 | CCN(CC)CCCNc1nn(CCC(C)N2CCCCC2)c2ccc(O)cc12 (stereo not drawn) [(134), 1-(3-Piperidinobutyl)-3-(3-diethylaminopropylamino)-5-hydroxyindazole] | 29 | 349
19 | Nc1n[nH]c2c(I)cccc12 [(166), 3-Amino-7-iodoindazole] | 50 | 198
20 | Oc1ccc2[nH]nc(NCCCN3CCCCCC3)c2c1 [(85), 3-(3-Homopiperidinopropylamino)-5-hydroxyindazole] | 35 | 135
21 | CN1CCN(CCCn2nc(N)c3cc(Cl)ccc32)CC1 [(20), 1-[3-(4-Methylpiperazino)propyl]-3-amino-5-chloroindazole] | 26 | 278
22 | CC(C)CC(CCNc1nn(CCC(C)N2CCCCC2)c2ccc(O)cc12)N1CCCCC1 (stereo not drawn) [(136), 1-(3-Piperidinobutyl)-3-(3-piperidino-5-methylhexylamino)-5-hydroxyindazole] | 21 | 241
23 | Oc1ccc2[nH]nc(NCCCN3CCC(Cl)CC3)c2c1 [(84), 3-[3-(4-Chloropiperidino)propylamino]-5-hydroxyindazole] | 63 | 163

Row | Compound | inhibition in vivo at 100 mg/kg [1] [%] | LD50 (in vivo) [mg/kg]
24 | Nc1nn(CCCN2CCC(O)CC2)c2ccc(O)cc12 [(39), 1-[3-(4-Hydroxypiperidino)propyl]-3-amino-5-hydroxyindazole] | 35 | 311
25 | CC1CCCCN1CCCNc1n[nH]c2ccc(O)cc12 (stereo not drawn) [(81), 3-[3-(2-Methylpiperidino)propylamino]-5-hydroxyindazole] | 47 | 147
26 | CCCCN(CCCC)CCCNc1n[nH]c2ccc(O)cc12 [(74), 3-(3-Di-n-butylaminopropylamino)-5-hydroxyindazole] | 53 | 253
27 | CCCCN(CCCC)CCCNc1nn(CCCN(CC)CC)c2ccc(O)cc12 [(128), 1-(3-Diethylaminopropyl)-3-(3-di-n-butylaminopropylamino)-5-hydroxyindazole] | 31 | 170
28 | Nc1n[nH]c2ccc(I)cc12 [(165), 3-Amino-5-iodoindazole] | 55 | 242
29 | CC1CCCCN1CCCn1nc(N)c2cc(O)ccc21 (stereo not drawn) [(37), 1-[3-(2-Methylpiperidino)propyl]-3-amino-5-hydroxyindazole] | 48 | 267
30 | Nc1nn(CCN2CCOCC2)c2ccccc12 [(151), 1-(2-Morpholinoethyl)-3-aminoindazole] | 48 | 290
31 | Clc1ccc2[nH]nc(NCCCN3CCC(Cl)CC3)c2c1 [(62), 3-[3-(4-Chloropiperidino)propylamino]-5-chloroindazole] | 65 | 312
32 | CCN(CC)CCCNc1nn(CCCN2CCCCC2)c2ccc(Cl)cc12 [(100), 1-(3-Piperidinopropyl)-3-(3-diethylaminopropylamino)-5-chloroindazole] | 30 | 281
33 | CCN(CC)CCCNc1nn(CCCN(CC)CC)c2ccc(N)cc12 [(93), 1-(3-Diethylaminopropyl)-3-(3-diethylaminopropylamino)-5-aminoindazole] | 28 | 191
34 | CC(CCn1nc(NCCC(C)N2CCCCC2)c2cc(O)ccc21)N(C)C (stereo not drawn) [(140), 1-(3-Dimethylaminobutyl)-3-(3-piperidinobutylamino)-5-hydroxyindazole] | 27 | 313
35 | CC(CCn1nc(N)c2cc(O)ccc21)N1CCCCC1 (stereo not drawn) [(35), 1-(3-Piperidinobutyl)-3-amino-5-hydroxyindazole] | 47 | 246
36 | CCCCN(CCCC)CCCNc1nn(CCCN(CC)CC)c2ccc(Cl)cc12 [(98), 1-(3-Diethylaminopropyl)-3-(3-di-n-butylaminopropylamino)-5-chloroindazole] | 32 | 286
37 | CC(CCn1nc(NCCCN2CCCCC2)c2cc(O)ccc21)N1CCCCC1 (stereo not drawn) [(135), 1-(3-Piperidinobutyl)-3-(3-piperidinopropylamino)-5-hydroxyindazole] | 28 | 298
38 | CC1CCCCN1CCCNc1nn(CCCN2CCCC2)c2ccc(O)cc12 (stereo not drawn) [(143), 1-(3-Pyrrolidinopropyl)-3-[3-(2-methylpiperidino)propylamino]-5-hydroxyindazole] | 30 | 291
39 | CC(CCNc1nn(CCC(C)N2CCCCC2)c2ccc(O)cc12)N(C)C (stereo not drawn) [(137), 1-(3-Piperidinobutyl)-3-(3-dimethylaminobutylamino)-5-hydroxyindazole] | 21 | 258
40 | CCN(CC)CCCn1nc(NCCCCCCN2CCCCC2)c2cc(Cl)ccc21 [(97), 1-(3-Diethylaminopropyl)-3-(6-piperidinohexylamino)-5-chloroindazole] | 22 | 229
41 | CCN(CC)C(CCNc1n[nH]c2ccc(Cl)cc12)CC(C)C (stereo not drawn) [(54), 3-(3-Diethylamino-5-methylhexylamino)-5-chloroindazole] | 46 | 251
42 | CCN(CC)CCCNc1n[nH]c2c(O)cccc12 [(70), 3-(3-Diethylaminopropylamino)-7-hydroxyindazole] | 56 | 156
43 | CC(CCNc1n[nH]c2ccc(Cl)cc12)N1CCCCC1 (stereo not drawn) [(57), 3-(3-Piperidinobutylamino)-5-chloroindazole] | 54 | 173
44 | Clc1ccc2c(c1)c(NCCCN1CCC(Cl)CC1)nn2CCCN1CCOCC1 [(117), 1-(3-Morpholinopropyl)-3-[3-(4-chloropiperidino)propylamino]-5-chloroindazole] | 30 | 291
45 | CCN(CC)CCCNc1nn(CCC(C)N2CCCCC2)c2ccc(Cl)cc12 (stereo not drawn) [(104), 1-(3-Piperidinobutyl)-3-(3-diethylaminopropylamino)-5-chloroindazole] | 30 | 277
